Laboratory results from US20260053812A1, “METHODS OF TREATING HYPERTENSION WITH A COMBINATION OF AN ALDOSTERONE SYNTHASE INHIBITOR AND A DIURETIC” (Mineralys Therapeutics, Inc., priority 2022, published 2026).

Assay: Adverse events (TEAEs, SAEs, AESI; Safety Analysis Set)
Excerpt: In analyses performed on the Safety Analysis Set, subjects will be analyzed according to their actual treatment received.

Structure (SMILES): CC(=O)N[C@H]1CC[C@H](NC(=O)CN2CCN(c3nncc(-c4ccc(C)cc4)n3)CC2)CC1 [Compound A HBr]
- On-treatment TEAE, Vascular disorders, Mild, % (Part 1, 12.5 mg QD (N = 23)): (8.7) %
- On-treatment TEAE, Vascular disorders, Moderate, % (Part 1, 12.5 mg QD (N = 23)): (4.3) %
- Subjects with any On-treatment TEAEs leading to withdrawal from study drug, % (Part 1, 12.5 mg QD (N = 23)): (17.4) %
- Subjects with any On-treatment TEAEs, Mild, % (Part 1, 12.5 mg QD (N = 23)): (52.2) %
- Subjects with any On-treatment TEAEs, Moderate, % (Part 1, 12.5 mg QD (N = 23)): (13.0) %
- Subjects with any On-treatment TEAEs, Severe, % (Part 1, 12.5 mg QD (N = 23)): (4.3) %
- TEAE leading to permanent discontinuation from study drug, Cardiac disorders, % (Part 1, 12.5 mg QD (N = 23)): (4.3) %
- TEAE leading to permanent discontinuation from study drug, Coronary artery disease, % (Part 1, 12.5 mg QD (N = 23)): (4.3) %
- TEAE leading to permanent discontinuation from study drug, Dizziness, % (Part 1, 12.5 mg QD (N = 23)): (4.3) %
- TEAE leading to permanent discontinuation from study drug, Hyperkalaemia, % (Part 1, 12.5 mg QD (N = 23)): (8.7) %
- TEAE leading to permanent discontinuation from study drug, Metabolism and nutrition disorders, % (Part 1, 12.5 mg QD (N = 23)): (8.7) %
- TEAE leading to permanent discontinuation from study drug, Nervous system disorders, % (Part 1, 12.5 mg QD (N = 23)): (4.3) %
- On-treatment TEAE, Blood and lymphatic system disorders, % (Part 1, 25 mg BID (N = 30)): (6.7) %
- On-treatment TEAE, Blood and lymphatic system disorders, Mild, % (Part 1, 25 mg BID (N = 30)): (6.7) %
- On-treatment TEAE, Cortisol decreased, % (Part 1, 25 mg BID (N = 30)): (3.3) %
- On-treatment TEAE, Cortisol decreased, Mild, % (Part 1, 25 mg BID (N = 30)): (3.3) %
- On-treatment TEAE, Gastrointestinal disorders, % (Part 1, 25 mg BID (N = 30)): (3.3) %
- On-treatment TEAE, Gastrointestinal disorders, Mild, % (Part 1, 25 mg BID (N = 30)): (3.3) %
- On-treatment TEAE, Headache, % (Part 1, 25 mg BID (N = 30)): (6.7) %
- On-treatment TEAE, Headache, Mild, % (Part 1, 25 mg BID (N = 30)): (6.7) %
- On-treatment TEAE, Hyperkalaemia, % (Part 1, 25 mg BID (N = 30)): (30.0) %
- On-treatment TEAE, Hyperkalaemia, Mild, % (Part 1, 25 mg BID (N = 30)): (23.3) %
- On-treatment TEAE, Hyperkalaemia, Moderate, % (Part 1, 25 mg BID (N = 30)): (6.7) %
- On-treatment TEAE, Hypertension, % (Part 1, 25 mg BID (N = 30)): (3.3) %
- On-treatment TEAE, Infections and infestations, % (Part 1, 25 mg BID (N = 30)): (10.0) %
- On-treatment TEAE, Infections and infestations, Mild, % (Part 1, 25 mg BID (N = 30)): (6.7) %
- On-treatment TEAE, Infections and infestations, Moderate, % (Part 1, 25 mg BID (N = 30)): (3.3) %
- On-treatment TEAE, Investigations, % (Part 1, 25 mg BID (N = 30)): (10.0) %
- On-treatment TEAE, Investigations, Mild, % (Part 1, 25 mg BID (N = 30)): (6.7) %
- On-treatment TEAE, Investigations, Moderate, % (Part 1, 25 mg BID (N = 30)): (3.3) %
- On-treatment TEAE, Metabolism and nutrition disorders, % (Part 1, 25 mg BID (N = 30)): (33.3) %
- On-treatment TEAE, Metabolism and nutrition disorders, Mild, % (Part 1, 25 mg BID (N = 30)): (26.7) %
- On-treatment TEAE, Metabolism and nutrition disorders, Moderate, % (Part 1, 25 mg BID (N = 30)): (6.7) %
- On-treatment TEAE, Nervous system disorders, % (Part 1, 25 mg BID (N = 30)): (10.0) %
- On-treatment TEAE, Nervous system disorders, Mild, % (Part 1, 25 mg BID (N = 30)): (6.7) %
- On-treatment TEAE, Urinary tract infection, % (Part 1, 25 mg BID (N = 30)): (10.0) %
- On-treatment TEAE, Urinary tract infection, Mild, % (Part 1, 25 mg BID (N = 30)): (6.7) %
- On-treatment TEAE, Vascular disorders, % (Part 1, 25 mg BID (N = 30)): (3.3) %
- On-treatment TEAE, Vascular disorders, Mild, % (Part 1, 25 mg BID (N = 30)): (3.3) %
- Subjects with any On-treatment TEAEs leading to withdrawal from study drug, % (Part 1, 25 mg BID (N = 30)): 3.3%
- Subjects with any On-treatment TEAEs, Mild, % (Part 1, 25 mg BID (N = 30)): (46.7) %
- Subjects with any On-treatment TEAEs, Moderate, % (Part 1, 25 mg BID (N = 30)): (13.3) %
- TEAE leading to permanent discontinuation from study drug, Hyperkalaemia, % (Part 1, 25 mg BID (N = 30)): 3.3%
- TEAE leading to permanent discontinuation from study drug, Hypertension, % (Part 1, 25 mg BID (N = 30)): 3.3%
- TEAE leading to permanent discontinuation from study drug, Metabolism and nutrition disorders, % (Part 1, 25 mg BID (N = 30)): 3.3%
- TEAE leading to permanent discontinuation from study drug, Vascular disorders, % (Part 1, 25 mg BID (N = 30)): 3.3%
- On-treatment TEAE, Cardiac disorders, % (Part 1, 50 mg QD (N = 28)): (3.6) %
- On-treatment TEAE, Dizziness, % (Part 1, 50 mg QD (N = 28)): (7.1) %
- On-treatment TEAE, Gastrointestinal disorders, % (Part 1, 50 mg QD (N = 28)): (3.6) %
- On-treatment TEAE, Gastrointestinal disorders, Mild, % (Part 1, 50 mg QD (N = 28)): (3.6) %
- On-treatment TEAE, General disorders and administration site conditions, % (Part 1, 50 mg QD (N = 28)): (7.1) %
- On-treatment TEAE, General disorders and administration site conditions, Mild, % (Part 1, 50 mg QD (N = 28)): (3.6) %
- On-treatment TEAE, Headache, % (Part 1, 50 mg QD (N = 28)): (3.6) %
- On-treatment TEAE, Headache, Mild, % (Part 1, 50 mg QD (N = 28)): (3.6) %
- On-treatment TEAE, Hyperkalaemia, % (Part 1, 50 mg QD (N = 28)): (10.7) %
- On-treatment TEAE, Hyperkalaemia, Mild, % (Part 1, 50 mg QD (N = 28)): (10.7) %
- On-treatment TEAE, Hypertension, % (Part 1, 50 mg QD (N = 28)): (7.1) %
- On-treatment TEAE, Hypertension, Moderate, % (Part 1, 50 mg QD (N = 28)): (7.1) %
- On-treatment TEAE, Infections and infestations, % (Part 1, 50 mg QD (N = 28)): (7.1) %
- On-treatment TEAE, Infections and infestations, Moderate, % (Part 1, 50 mg QD (N = 28)): (7.1) %
- On-treatment TEAE, Investigations, % (Part 1, 50 mg QD (N = 28)): (3.6) %
- On-treatment TEAE, Investigations, Mild, % (Part 1, 50 mg QD (N = 28)): (3.6) %
- On-treatment TEAE, Metabolism and nutrition disorders, % (Part 1, 50 mg QD (N = 28)): (17.9) %
- On-treatment TEAE, Metabolism and nutrition disorders, Mild, % (Part 1, 50 mg QD (N = 28)): (17.9) %
- On-treatment TEAE, Nervous system disorders, % (Part 1, 50 mg QD (N = 28)): (7.1) %
- On-treatment TEAE, Nervous system disorders, Mild, % (Part 1, 50 mg QD (N = 28)): (3.6) %
- On-treatment TEAE, Urinary tract infection, % (Part 1, 50 mg QD (N = 28)): (7.1) %
- On-treatment TEAE, Urinary tract infection, Mild, % (Part 1, 50 mg QD (N = 28)): (3.6) %
- On-treatment TEAE, Vascular disorders, % (Part 1, 50 mg QD (N = 28)): (7.1) %
- On-treatment TEAE, Vascular disorders, Moderate, % (Part 1, 50 mg QD (N = 28)): (7.1) %
- Subjects with any On-treatment TEAEs, Mild, % (Part 1, 50 mg QD (N = 28)): (14.3) %
- Subjects with any On-treatment TEAEs, Moderate, % (Part 1, 50 mg QD (N = 28)): (21.4) %
- On-treatment TEAE, Blood creatinine increased, % (Part 1, 100 mg QD (N = 30)): (10.0) %
- On-treatment TEAE, Blood creatinine increased, Mild, % (Part 1, 100 mg QD (N = 30)): (10.0) %
- On-treatment TEAE, Gastrointestinal disorders, % (Part 1, 100 mg QD (N = 30)): (6.7) %
- On-treatment TEAE, Gastrointestinal disorders, Mild, % (Part 1, 100 mg QD (N = 30)): (6.7) %
- On-treatment TEAE, Glomerular filtration rate decreased, % (Part 1, 100 mg QD (N = 30)): (16.7) %
- On-treatment TEAE, Glomerular filtration rate decreased, Mild, % (Part 1, 100 mg QD (N = 30)): (13.3) %
- On-treatment TEAE, Hyperkalaemia, % (Part 1, 100 mg QD (N = 30)): (26.7) %
